Results on 14 compounds are retold here after patent US8865623B2, “Herbicidally active cyclic diones and derivatives thereof, processes for their preparation, compositions, and method of controlling weeds” (Syngenta Limited, priority 2009, dated 2014).

Type in all cases: in vivo
Test [1] relates to Avena fatua (AVEFA). Briefly: Pre-emergence herbicidal activity, glasshouse pot test. As to conditions: evaluated after 13 days; for pest or weed control at 250 g/ha: Avena fatua, 312 h, Rate 250 g/ha, pre-emergence spray, read-out: Pre-emergence activity AVEFA (100=total damage to plant; 0=no damage to plant). The gist of the method: (§1)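 Glasshouse pots, standard soil; spray at day 1 (pre) or day 8 (post) after sowing; a.i. in acetone/water 50:50 + 0.5% Tween 20, diluted aqueous. 24/16° C, 14 h light, 65% RH. Visual damage at 13 days: 0 = none, 100 = total.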

Test [2] concerns Echinochloa crus-galli (ECHCG). The description is as above. Particulars: evaluated after 13 days; for pest or weed control at 250 g/ha: Echinochloa crus-galli, 312 h, Rate 250 g/ha, pre-emergence spray, read-out: Pre-emergence activity ECHCG (100=total damage to plant; 0=no damage to plant). The gist of the method:
as §1

For test [3], the system named is Alopecurus myosuroides (ALOMY). The test is described as above. Particulars: evaluated after 13 days; for pest or weed control at 250 g/ha: Alopecurus myosuroides, 312 h, Rate 250 g/ha, pre-emergence spray, read-out: Pre-emergence activity ALOMY (100=total damage to plant; 0=no damage to plant). The gist of the method: as §1
Test [4] relates to Lolium perenne (LOLPE). The test is described as above. As to conditions: evaluated after 13 days; for pest or weed control at 250 g/ha: Lolium perenne, 312 h, Rate 250 g/ha, pre-emergence spray, read-out: Pre-emergence activity LOLPE (100=total damage to plant; 0=no damage to plant). The gist of the method:
as §1

Test [5] has as its system Avena fatua (AVEFA). Briefly: Post-emergence herbicidal activity, glasshouse pot test. As to conditions: rate 250 g/ha, evaluated after 13 days; for pest or weed control at 250 g/ha: Avena fatua, 312 h, glasshouse, read-out: Post-emergence activity AVEFA (100=total damage to plant; 0=no damage to plant). A digest of the protocol: as §1
Test [6] deals with Echinochloa crus-galli (ECHCG). Described as above. As to conditions: rate 250 g/ha, evaluated after 13 days; for pest or weed control at 250 g/ha: Echinochloa crus-galli, 312 h, glasshouse, read-out: Post-emergence activity ECHCG (100=total damage to plant; 0=no damage to plant). The gist of the method: as §1
Test [7] concerns Alopecurus myosuroides (ALOMY). Described as above. As to conditions: rate 250 g/ha, evaluated after 13 days; for pest or weed control at 250 g/ha: Alopecurus myosuroides, 312 h, glasshouse, read-out: Post-emergence activity ALOMY (100=total damage to plant; 0=no damage to plant). The gist of the method:
as §1

Test [8] deals with Lolium perenne (LOLPE). The description is as above. Particulars: rate 250 g/ha, evaluated after 13 days; for pest or weed control at 250 g/ha: Lolium perenne, 312 h, glasshouse, read-out: Post-emergence activity LOLPE (100=total damage to plant; 0=no damage to plant). The gist of the method: as §1

As for `CCc1ccc(Oc2ccc(F)cc2)cc1C1=C(O)[C@H]2CC[C@H](C2)C1=O` (single isomer, unassigned) [Example A-92], the pest or weed control at 250 g/ha came to 30% in the test with Avena fatua (AVEFA) [1]; 100% in test [2]; 40% in test [3]; 90% with Lolium perenne (LOLPE) [4]; 10% in the test with Avena fatua (AVEFA) [5]; 80% in test [6]. In addition, the pest or weed control at 250 g/ha in test [7] is 20%; in the test with Lolium perenne (LOLPE) [8], 30%.

For the compound `CCc1ccc(Oc2nc(Cl)c(Cl)cc2Cl)cc1C1=C(O)C(C)(C)OC(C)(C)C1=O` [Example A-142], the pest or weed control at 250 g/ha in the test with Avena fatua (AVEFA) [1] is 0%; in test [2] it was 40%; in test [3], 20%; in the test on Lolium perenne (LOLPE) [4], 10%; in the test on Avena fatua (AVEFA) [5], 20%; in test [6], 70%. For the same compound, the pest or weed control at 250 g/ha in test [7] stood at 20%; in the test with Lolium perenne (LOLPE) [8], 10%.

`CCc1ccc(Oc2ccc3ccccc3n2)cc1C1=C(O)C(C)(C)OC(C)(C)C1=O` [Example A-223]: the pest or weed control at 250 g/ha with Avena fatua (AVEFA) [1] was found to be 50%; in test [2], 100%; in test [3] it was 80%; with Lolium perenne (LOLPE) [4], 90%; with Avena fatua (AVEFA) [5], 60%; in test [6], 100%. In addition, the figures for the pest or weed control at 250 g/ha (in test [7]; in the test with Lolium perenne (LOLPE) [8]) were 100% and 90%, respectively.

For the compound `CCc1ccc(Oc2ccc([N+](=O)[O-])cc2)cc1C1=C(O)C(C)(C)OC(C)(C)C1=O` [Example A-195], the pest or weed control at 250 g/ha in the test on Avena fatua (AVEFA) [1] stood at 0%; in test [2], 100%; in test [3], 30%; in the test on Lolium perenne (LOLPE) [4] it was 40%; with Avena fatua (AVEFA) [5], 60%; in test [6] it was 100%. Moreover, the pest or weed control at 250 g/ha was found to be 60% in test [7] and 80% with Lolium perenne (LOLPE) [8].

As for `CCc1ccc(Oc2nc3cc(OC)ccc3s2)cc1C1=C(O)C(C)(C)OC(C)(C)C1=O` [Example A-217], the pest or weed control at 250 g/ha was determined as 0% with Avena fatua (AVEFA) [1]; 40% in test [2]; 30% in test [3]; 60% with Lolium perenne (LOLPE) [4]; 50% in the test with Avena fatua (AVEFA) [5]; 70% in test [6]. For the same compound, the pest or weed control at 250 g/ha (in test [7]; with Lolium perenne (LOLPE) [8]) was 60% each time.

As for `CCc1ccc(Oc2ccc(Br)cc2F)cc1C1=C(O)[C@@H]2CC[C@](C)(C1=O)C2(C)C` [Example A-238], the pest or weed control at 250 g/ha in the test on Avena fatua (AVEFA) [1] is 40%; in test [2], 100%; in test [3] it was 60%; with Lolium perenne (LOLPE) [4] it was 90%; in the test with Avena fatua (AVEFA) [5], 90%; in test [6], 100%. Moreover, the results for the pest or weed control at 250 g/ha (in test [7]; in the test with Lolium perenne (LOLPE) [8]) were 70% and 90%, respectively.

In the case of `CCc1ccc(Oc2ccc(Cl)cc2)cc1C1=C(O)C(C)(C)CCC1=O` [Example A-50], the pest or weed control at 250 g/ha with Avena fatua (AVEFA) [1] turned out to be 0%; in test [2], 100%; in test [3] it was 0%; with Lolium perenne (LOLPE) [4], 70%; with Avena fatua (AVEFA) [5] it was 0%; in test [6], 50%. The pest or weed control at 250 g/ha in test [7] was determined as 0%; in the test on Lolium perenne (LOLPE) [8] it was 60%.

In the case of `CCc1ccc(Oc2nc(F)c(F)cc2F)cc1C1=C(O)C(C)(C)OC(C)(C)C1=O` [Example A-167], the pest or weed control at 250 g/ha with Avena fatua (AVEFA) [1] was found to be 10%; in test [2] it was 100%; in test [3], 30%; in the test on Lolium perenne (LOLPE) [4], 30%; in the test with Avena fatua (AVEFA) [5], 40%; in test [6], 100%. For the same compound, the pest or weed control at 250 g/ha in test [7] was found to be 60%; in the test on Lolium perenne (LOLPE) [8], 50%.

Consider `CCc1ccc(Oc2c(F)cc(C(F)(F)F)cc2F)cc1C1=C(O)C(C)(C)OC(C)(C)C1=O` [Example A-205], for which the pest or weed control at 250 g/ha in the test on Avena fatua (AVEFA) [1] is 10%; in test [2], 60%; in test [3], 20%; with Lolium perenne (LOLPE) [4] it was 60%; with Avena fatua (AVEFA) [5], 60%; in test [6], 100%. Also, the pest or weed control at 250 g/ha turned out to be 70% in test [7] and 90% in the test on Lolium perenne (LOLPE) [8].

For the compound `CCc1ccc(Oc2nc(F)c(Cl)c(OC)c2Cl)cc1C1=C(O)C(C)(C)OC(C)(C)C1=O` [Example A-222], the pest or weed control at 250 g/ha with Avena fatua (AVEFA) [1] amounted to 0%; in test [2], 0%; in test [3], 0%; in the test on Lolium perenne (LOLPE) [4] it was 0%; in the test with Avena fatua (AVEFA) [5], 20%; in test [6], 30%. Also, the pest or weed control at 250 g/ha was 20% in test [7] and 30% in the test with Lolium perenne (LOLPE) [8].

On to `CCc1ccc(Oc2nc3ccc(OC)cc3s2)cc1C1=C(O)[C@H]2CC[C@H](C2)C1=O` [Example A-343], for which the pest or weed control at 250 g/ha in the test on Avena fatua (AVEFA) [1] came out at 50%; in test [2], 100%; in test [3], 50%; in the test with Lolium perenne (LOLPE) [4], 100%; with Avena fatua (AVEFA) [5], 80%; in test [6], 100%. Further, the pest or weed control at 250 g/ha in test [7] is 50%; in the test with Lolium perenne (LOLPE) [8] it was 80%.

On to `CCc1ccc(Oc2ncc(C(F)(F)F)cc2C(F)(F)F)cc1C1=C(O)[C@H]2CC[C@H](C2)C1=O` [Example A-341], for which the pest or weed control at 250 g/ha in the test with Avena fatua (AVEFA) [1] was determined as 90%; in test [2] it was 100%; in test [3], 100%; in the test on Lolium perenne (LOLPE) [4], 100%; with Avena fatua (AVEFA) [5] it was 100%; in test [6], 100%. For the same compound, the pest or weed control at 250 g/ha in test [7] came out at 90%; with Lolium perenne (LOLPE) [8] it was 100%.

For the compound `CCc1ccc(Oc2ccc(C#N)cc2F)cc1C1=C(OC(C)=O)C(C)(C)OC(C)(C)C1=O` [Example P-1], the “AVEFA damage to plant (100=total damage to plant; 0=no damage to plant)” value with Avena fatua (AVEFA) [1] (pre-emergence, rate 250 g/ha) is reported as 20; with Avena fatua (AVEFA) [5], 60. Also, the “ECHCG damage to plant (100=total damage to plant; 0=no damage to plant)” value in test [2] (pre-emergence, rate 250 g/ha) was 100; in test [6], 100. Moreover, the “ALOMY damage to plant (100=total damage to plant; 0=no damage to plant)” value is 80 in test [3] (pre-emergence, rate 250 g/ha) and 80 in test [7]. Besides, the “LOLPE damage to plant (100=total damage to plant; 0=no damage to plant)” value in the test with Lolium perenne (LOLPE) [4] (pre-emergence, rate 250 g/ha) was found to be 100; with Lolium perenne (LOLPE) [8], 90.

`CCc1ccc(Oc2ccc(F)c(Cl)c2)cc1C1=C(O)CC(C)(C)CC1=O` [Example A-257]: the pest or weed control at 250 g/ha in the test with Avena fatua (AVEFA) [1] amounted to 0%; in test [2], 40%; in test [3] it was 0%; with Lolium perenne (LOLPE) [4] it was 20%; in the test on Avena fatua (AVEFA) [5], 0%; in test [6], 80%. Also, the pest or weed control at 250 g/ha was 30% in test [7] and 50% with Lolium perenne (LOLPE) [8].
